Laboratory results published in PubChem BioAssay (NCI).
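Test compounds were applied to cells in 96-well plates for 48 hours at 5 doses. At the GI50, growth is halved. At the TGI there is no net growth.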

How the values were obtained:
Assay in all cases: inhibition of tumour cell growth, NCI panel, 48 h
U251 CNS = test system: U251 CNS
SW-620 colon = test system: SW-620 colon
HCT-15 colon = test system: HCT-15 colon
SNB-75 CNS = test system: SNB-75 CNS
OVCAR-3 ovarian = test system: OVCAR-3 ovarian
HOP-92 NSCLC = test system: HOP-92 NSCLC

Row | Compound | GI50 (U251 CNS) [µM] | TGI (U251 CNS) [µM] | GI50 (SW-620 colon) [µM] | TGI (SW-620 colon) [µM] | GI50 (HCT-15 colon) [µM] | TGI (HCT-15 colon) [µM] | GI50 (SNB-75 CNS) [µM] | TGI (SNB-75 CNS) [µM] | GI50 (OVCAR-3 ovarian) [µM] | TGI (OVCAR-3 ovarian) [µM] | GI50 (HOP-92 NSCLC) [µM] | TGI (HOP-92 NSCLC) [µM]
1 | Clc1ccc2c(NCCCNc3nccc(Nc4ccc(Br)cc4)n3)ccnc2c1 | 1.52 | 2.94 | 1.58 | 3.3 | 1.28 | 2.7 | 1.3 | 2.57 | 1.75 | 3.23 | 1.32 | 3.23
2 | CC1OC2CC(=O)OC2C2=C1C(=O)c1c(O)cccc1C2=O (stereo unspecified) | 0.167 | 0.492 | 0.0411 | 0.154 | 0.0314 | 0.15 | 0.13 | 0.317 | 0.0297 | 0.0851 | 0.151 | 0.315
3 | C=C(C)[C@@]12OC3(/C=C/C=C/CCCCC)O[C@@H]1[C@@H]1[C@@H]4O[C@]4(CO)[C@@H](O)[C@]4(O)C(=O)C(C)=C[C@H]4[C@@]1(O3)[C@H](C)[C@H]2OC(=O)c1ccccc1 | 1.24 | 2.48 | – | – | 1.42 | 2.9 | – | – | 1.68 | 3.08 | < 0.01 | 2.13
4 | CC/C(=C(/c1ccc(OCCN(C)C)cc1)c1ccc(OC(=O)CCCCC(=O)c2c(C)[nH]c(/C=C3\N=C(c4ccc[nH]4)C=C3OC)c2C)cc1)c1ccccc1 | 5.22 | 18.3 | 3.16 | 11.4 | 4.44 | 28.5 | 8.17 | 23.2 | 11.7 | 27 | 1.12 | 6.28
5 | O=C(Nc1ccc(OS(=O)(=O)c2ccccc2)cc1)C12CC3CC(CC(C3)C1)C2 | 4.81 | > 100 | 1.97 | > 100 | 0.997 | > 100 | 7.16 | > 100 | – | – | 1.87 | > 100
6 | C[As](C)SC1OC(CO)C(O)C1O (stereo unspecified) | 0.709 | 3.2 | 0.391 | 1.61 | 0.238 | 1.12 | 0.912 | 2.62 | 0.0623 | 0.203 | 0.0884 | 0.955
7 | CCOc1nc(-c2ccccc2)cc2c(O)c(-c3nnco3)[nH]c(=O)c12 | 4.41 | > 43.7 | 3.6 | > 100 | 3.66 | > 100 | 1.92 | 8.99 | 4.42 | > 100 | 1.24 | 6.97
8 | COc1ccc(C(=O)c2cc(OC)c(C)c(OC)c2)cc1OC(=O)CCl | 0.415 | > 45.3 | 0.211 | > 100 | 0.0697 | 27.2 | 0.154 | > 100 | 0.336 | 10.8 | 3.22 | 58.5
9 | CC(C)=C[C@@H]1C[C@H](C)[C@H]2CC[C@H](C)C3=C2[C@](O)(OC3=O)[C@]1(C)O | > 100 | > 100 | > 100 | > 100 | > 100 | > 100 | > 100 | > 100 | > 100 | > 100 | – | –
10 | CC(C)(C)C(=O)OCOP(=O)(OCOC(=O)C(C)(C)C)C1CCCN(O)C1=O (stereo unspecified) | 0.342 | 5.22 | 0.493 | 42.6 | 0.675 | 14.8 | 1.43 | 28.6 | 0.559 | > 100 | 0.695 | 51.5
11 | CC(SC(C)C(=O)N/N=C/c1cccc(Cl)c1)C(=O)N/N=C\c1cccc(Cl)c1 (stereo unspecified) | 3.74 | 15.1 | 2.6 | 6.65 | 32.3 | > 100 | 4.28 | 19.5 | 2.03 | 3.81 | – | –
12 | Oc1ccc(Cl)cc1Cc1cc(Cl)cc(Cl)c1O | 5.12 | 50.9 | 5.37 | 19.9 | 4.18 | 23.5 | 5.14 | 40.8 | 2.83 | 16.5 | 1.19 | 6.42
13 | O=c1c2ccccc2[se]n1-c1cccnc1 | – | 76 | – | 83.3 | – | 52.8 | – | 43.8 | – | > 100 | – | 36.1
14 | C=C(F)C(=O)N1CCN(c2nc(OC[C@@H]3CCCN3C)nc3c2CCN(c2cccc4cccc(Cl)c24)C3)C[C@@H]1CC#N | 1.02 | 2.21 | 0.992 | 2.52 | 0.56 | 2.06 | 1.17 | 2.67 | 1.15 | 3.28 | 0.437 | 1.85
15 | CC(=O)OC1Oc2ccccc2-c2oc(=O)c(-c3cc(=O)oc4cc(O)ccc34)cc21 (stereo unspecified) | 24 | 65.3 | 25.8 | 74.4 | 21.3 | 96.4 | 22.3 | 72.2 | 13.8 | 41.4 | 14.1 | 40.9
16 | Ic1ccc(Nc2nc3nonc3nc2Nc2ccc(I)cc2)cc1 | 0.324 | > 100 | 0.296 | > 100 | 0.144 | > 100 | 0.227 | > 100 | 0.214 | > 100 | 0.0408 | 0.458
17 | Cn1cc(C2=C(c3ccc4ccccc4c3)C(=O)NC2=O)c2ccccc21 | > 25 | > 25 | 8.28 | > 25 | 6.27 | > 25 | 7.47 | > 25 | > 25 | > 25 | > 25 | > 25
18 | CNCCNc1c2c(c(NCCNC)c3c(CN(C)C)c[nH]c13)C(=O)c1ccccc1C2=O | 2.95 | 13.8 | 1.31 | 11 | 5.7 | 20.5 | 7.14 | 22 | 1.03 | 6.8 | 1.02 | 5.33
19 | O=Cc1cc2c(cc1-c1c(C=O)ccc3c1OCO3)OCO2 | – | > 10 | – | > 10 | – | > 10 | – | > 10 | – | > 10 | – | > 10
